For this test, the target named is human GPR17 short isoform (Homo sapiens, UniProt Q13304). Nature of the test: GPR17 cAMP assay (hGPR17 cAMP). In kind it is cell-based. The settings on record: CHO-K1 cells stably expressing human GPR17 short isoform; antagonist mode with EC80 of MDL29,951, forskolin 15 μM, TR-FRET cAMP. The protocol: GPR17 cAMP Assay Protocol:
CHO-K1 cells stably expressing vector containing untagged human GPR17 short isoform (Roche) were cultured at 37° C./5% CO2 in DMEM (Dulbecco's Modified Eagle Medium):F-12 (1:1) supplemented with 10% foetal bovine serum and 400 μg/ml Geneticin.
Changes in intracellular cyclic adenosine monophosphate (cAMP) levels were quantified using the Nano-TRF Detection Assay kit (Roche Diagnostics, Cat. No. 05214386001). This assay allows for direct cAMP quantification in a homogeneous solution. cAMP is detected based on time-resolved fluorescence energy transfer (TR-FRET) and competitive binding of ruthenylated cAMP and endogenous cAMP to an anti-cAMP monoclonal antibody labeled with AlexaFluor-700. The Ruthenium complex serves as the FRET donor and transfers energy to AlexaFluor-700. The FRET signal is inversely proportional to the cAMP concentration.
CHO-GPR17S cells were detached with Accutase and resuspended in assay buffer consisting of Hank's Balanced Salt Solution (HBSS), 10 mM HEPES (4-(2-hydroxyethyl) piperazine-1-ethanesulfonic acid solution) and 0.1% bovine serum albumin (pH 7.4). The cells were seeded in black 384-well plates (Corning) at a density of 10'000 cells/20 μl assay buffer until the addition of compounds.
Test antagonist compounds were serially diluted in dimethyl sulfoxide (DMSO) and spotted in 384-well plates. The compounds were then diluted in HBSS buffer supplemented with an EC80 concentration of MDL29,951 (3-(2-Carboxy-4,6-dichloroindol-3-yl)propionic acid) (GPR17 agonist) plus 3-Isobutyl-1-methylxanthine (IBMX) (0.5 mM final concentration) and added to the cells at room temperature. Forskolin (15 μM final concentration) was added 5 minutes after the test compounds and the cells were incubated at room temperature for 30 minutes. The assay was stopped by adding cAMP detection mix (containing detergents for cell lysis) for 90 minutes at room temperature.
Cellular cAMP was measured using a Paradigm reader (Molecular Devices). The raw data was used to calculate the FRET signal based on the assay's P-factor as per cAMP kit instructions. The data was normalized to the maximal activity of a reference antagonist and dose response curves were fitted to the percent activity of the test compounds using a sigmoidal dose response model (Genedata Screener).
In general terms: Cyclic AMP is a second messenger, typically raised through Gs and lowered through Gi signalling.

Sequence of human GPR17 short isoform (Q13304 29-367): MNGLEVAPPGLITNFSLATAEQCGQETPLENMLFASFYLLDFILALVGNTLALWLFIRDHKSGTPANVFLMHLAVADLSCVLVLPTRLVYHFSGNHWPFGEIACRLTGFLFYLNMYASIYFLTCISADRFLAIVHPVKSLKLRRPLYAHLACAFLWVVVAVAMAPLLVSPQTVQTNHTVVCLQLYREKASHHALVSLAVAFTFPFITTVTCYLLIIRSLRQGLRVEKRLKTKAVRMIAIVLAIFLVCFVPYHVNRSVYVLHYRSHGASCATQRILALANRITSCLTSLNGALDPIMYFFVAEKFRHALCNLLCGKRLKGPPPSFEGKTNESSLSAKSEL

For `COc1nc(NS(=O)(=O)c2c[nH]c(-c3ccccc3)c2)nc(OC)c1OC(F)F` [Example 2, N-[5-(difluoromethoxy)-4,6-dimethoxy-pyrimidin-2-yl]-5-phenyl-1H-pyrrole-3-sulfonamide], the IC50 – broadly, the concentration at which inhibition is half-maximal – was determined as 478 nM. That is a sub-micromolar value.
Regarding `COc1nc(NS(=O)(=O)c2c[nH]c(-c3ccccc3)c2)nc(OC)c1OCCF` [Example 3, N-[5-(2-fluoroethoxy)-4,6-dimethoxy-pyrimidin-2-yl]-5-phenyl-1H-pyrrole-3-sulfonamide], the IC50 worked out at 73 nM.
Compound `COc1nc(NS(=O)(=O)c2c[nH]c(-c3nccs3)c2)nc(OC)c1OCC(F)F` [Example 4, N-[5-(2,2-difluoroethoxy)-4,6-dimethoxy-pyrimidin-2-yl]-5-thiazol-2-yl-1H-pyrrole-3-sulfonamide] yielded a half-maximal inhibitory concentration (IC50) of 500 nM.
To `COc1nc(NS(=O)(=O)c2c[nH]c(-c3ncccc3F)c2)nc(OC)c1OC(F)F` [Example 5, N-[5-(difluoromethoxy)-4,6-dimethoxy-pyrimidin-2-yl]-5-(3-fluoro-2-pyridyl)-1H-pyrrole-3-sulfonamide] belongs 325 nM; to `COc1nc(NS(=O)(=O)c2c[nH]c(-c3ncccc3F)c2)nc(OC)c1CC(F)F` [Example 6, N-[5-(2,2-difluoroethyl)-4,6-dimethoxy-pyrimidin-2-yl]-5-(3-fluoro-2-pyridyl)-1H-pyrrole-3-sulfonamide], 107 nM.
As for `COc1nc(NS(=O)(=O)c2c[nH]c(-c3ncccc3F)c2)nc(OC)c1OCC(F)F` [Example 8, N-[5-(2,2-difluoroethoxy)-4,6-dimethoxy-pyrimidin-2-yl]-5-(3-fluoro-2-pyridyl)-1H-pyrrole-3-sulfonamide], the figure is 99 nM.
`COc1nc(NS(=O)(=O)c2c[nH]c(-c3nccs3)c2)ncc1OCC(F)F` [Example 9, N-[5-(2,2-difluoroethoxy)-4-methoxy-pyrimidin-2-yl]-5-thiazol-2-yl-1H-pyrrole-3-sulfonamide] had a concentration for half-maximal inhibition (IC50) of 697 nM.
As for `COc1nc(NS(=O)(=O)c2c[nH]c(-c3nccs3)c2)nc(OC)c1CCC#N` [Example 10, N-[5-(2-cyanoethyl)-4,6-dimethoxy-pyrimidin-2-yl]-5-thiazol-2-yl-1H-pyrrole-3-sulfonamide], the figure is 69 nM.
As for `COc1nc(NS(=O)(=O)c2c[nH]c(-c3ccsn3)c2)nc(OC)c1OCC(F)F` [Example 11, N-[5-(2,2-difluoroethoxy)-4,6-dimethoxy-pyrimidin-2-yl]-5-isothiazol-3-yl-1H-pyrrole-3-sulfonamide], the figure is 142 nM; as for `COc1nc(NS(=O)(=O)c2c[nH]c(-c3ccccc3)c2)nc(OC)c1CC(F)F` [Example 12, N-[5-(2,2-difluoroethyl)-4,6-dimethoxy-pyrimidin-2-yl]-5-phenyl-1H-pyrrole-3-sulfonamide], 169 nM; as for `COc1nc(NS(=O)(=O)c2c[nH]c(-c3cscn3)c2)nc(OC)c1CC(F)F` [Example 15, N-[5-(2,2-difluoroethyl)-4,6-dimethoxy-pyrimidin-2-yl]-5-thiazol-4-yl-1H-pyrrole-3-sulfonamide], 661 nM.
Turning to `COc1nc(NS(=O)(=O)c2c[nH]c(-c3cscn3)c2)nc(OC)c1OC(F)F` [Example 16, N-[5-(difluoromethoxy)-4,6-dimethoxy-pyrimidin-2-yl]-5-thiazol-4-yl-1H-pyrrole-3-sulfonamide], the IC50 was found to be 2270 nM.
Take `COc1nc(NS(=O)(=O)c2c[nH]c(-c3ccccn3)c2)nc(OC)c1CC(F)F` [Example 17, N-[5-(2,2-difluoroethyl)-4,6-dimethoxy-pyrimidin-2-yl]-5-(2-pyridyl)-1H-pyrrole-3-sulfonamide]: half-maximal inhibition (IC50) was put at 133 nM.
Compound `COc1nc(NS(=O)(=O)c2c[nH]c(-c3ccccn3)c2)nc(OC)c1OC(F)F` [Example 18, N-[5-(difluoromethoxy)-4,6-dimethoxy-pyrimidin-2-yl]-5-(2-pyridyl)-1H-pyrrole-3-sulfonamide] registered an IC50 of 344 nM.
As for `COc1nc(NS(=O)(=O)c2c[nH]c(-c3ccccn3)c2)nc(OC)c1OCC(F)F` [Example 19, N-[5-(2,2-difluoroethoxy)-4,6-dimethoxy-pyrimidin-2-yl]-5-(2-pyridyl)-1H-pyrrole-3-sulfonamide], the figure is 182 nM.
Compound `COc1nc(NS(=O)(=O)c2c[nH]c(-c3nc(C)cs3)c2)nc(OC)c1CC(F)F` [Example 20, N-[5-(2,2-difluoroethyl)-4,6-dimethoxy-pyrimidin-2-yl]-5-(4-methylthiazol-2-yl)-1H-pyrrole-3-sulfonamide] returned an IC50 of 198 nM.
`COc1nc(NS(=O)(=O)c2c[nH]cc2Cc2ccccc2)nc(OC)c1CC(F)F` [Example 21, 4-benzyl-N-[5-(2,2-difluoroethyl)-4,6-dimethoxy-pyrimidin-2-yl]-1H-pyrrole-3-sulfonamide] gave a half-inhibitory concentration (IC50) of 635 nM. Compared with the last compound, the IC50 is about 3.2-fold higher.
To `COc1nc(NS(=O)(=O)c2c[nH]cc2Cc2ccccc2)nc(OC)c1OC(F)F` [Example 22, 4-benzyl-N-[5-(difluoromethoxy)-4,6-dimethoxy-pyrimidin-2-yl]-1H-pyrrole-3-sulfonamide] belongs 2260 nM; to `COc1nc(NS(=O)(=O)c2c[nH]c(-c3ncccc3F)c2)nc(OC)c1CCC#N` [Example 23, N-[5-(2-cyanoethyl)-4,6-dimethoxy-pyrimidin-2-yl]-5-(3-fluoro-2-pyridyl)-1H-pyrrole-3-sulfonamide], 45 nM.
To `COc1nc(NS(=O)(=O)c2c[nH]c(-c3ncccc3F)c2)ncc1CC(F)F` [Example 24, N-[5-(2,2-difluoroethyl)-4-methoxy-pyrimidin-2-yl]-5-(3-fluoro-2-pyridyl)-1H-pyrrole-3-sulfonamide] belongs 331 nM.
To `COc1nc(NS(=O)(=O)c2c[nH]c(-c3cscn3)c2)nc(OC)c1OCCF` [Example 25, N-[5-(2-fluoroethoxy)-4,6-dimethoxy-pyrimidin-2-yl]-5-thiazol-4-yl-1H-pyrrole-3-sulfonamide] belongs 916 nM.
On to `COc1nc(NS(=O)(=O)c2c[nH]c(-c3cscn3)c2)nc(OC)c1OCC(F)F` [Example 26, N-[5-(2,2-difluoroethoxy)-4,6-dimethoxy-pyrimidin-2-yl]-5-thiazol-4-yl-1H-pyrrole-3-sulfonamide], for which half-maximal inhibition (IC50) was put at 724 nM.
As to `COc1nc(NS(=O)(=O)c2c[nH]c(-c3ccccn3)c2)nc(OC)c1OCCF` [Example 27, N-[5-(2-fluoroethoxy)-4,6-dimethoxy-pyrimidin-2-yl]-5-(2-pyridyl)-1H-pyrrole-3-sulfonamide], half-maximal inhibition (IC50) required 127 nM.
The compound `COc1nc(NS(=O)(=O)c2c[nH]cc2Cc2ccccc2)nc(OC)c1OCCF` [Example 28, 4-benzyl-N-[5-(2-fluoroethoxy)-4,6-dimethoxy-pyrimidin-2-yl]-1H-pyrrole-3-sulfonamide] showed an IC50 of 1080 nM.
As for `[2H]C([2H])(c1cccc(F)c1)c1c[nH]cc1S(=O)(=O)Nc1nc(OC)c(OCC(F)F)c(OC)n1` [Example 29, 4-[dideuterio-(3-fluorophenyl)methyl]-N-[5-(2,2-difluoroethoxy)-4,6-dimethoxy-pyrimidin-2-yl]-1H-pyrrole-3-sulfonamide], the figure is 964 nM; as for `COc1nc(NS(=O)(=O)c2c[nH]cc2Cc2ccccc2)nc(OC)c1OCC(F)F` [Example 30, 4-benzyl-N-[5-(2,2-difluoroethoxy)-4,6-dimethoxy-pyrimidin-2-yl]-1H-pyrrole-3-sulfonamide], 1860 nM; as for `COc1nc(NS(=O)(=O)c2c[nH]c(-c3nc(C)cs3)c2)nc(OC)c1OCCF` [Example 31, N-[5-(2-fluoroethoxy)-4,6-dimethoxy-pyrimidin-2-yl]-5-(4-methylthiazol-2-yl)-1H-pyrrole-3-sulfonamide], 222 nM.
To `COc1nc(NS(=O)(=O)c2c[nH]c(-c3nc(C)cs3)c2)nc(OC)c1OC(F)F` [Example 32, N-[5-(difluoromethoxy)-4,6-dimethoxy-pyrimidin-2-yl]-5-(4-methylthiazol-2-yl)-1H-pyrrole-3-sulfonamide] belongs 523 nM; to `COc1nc(NS(=O)(=O)c2c[nH]c(-c3nc(C)cs3)c2)nc(OC)c1OCC(F)F` [Example 33, N-[5-(2,2-difluoroethoxy)-4,6-dimethoxy-pyrimidin-2-yl]-5-(4-methylthiazol-2-yl)-1H-pyrrole-3-sulfonamide], 283 nM.
`COc1nc(NS(=O)(=O)c2c[nH]c(-c3nccs3)c2)ncc1CC(F)F` [Example 34, N-[5-(2,2-difluoroethyl)-4-methoxy-pyrimidin-2-yl]-5-thiazol-2-yl-1H-pyrrole-3-sulfonamide] showed an IC50 of 457 nM.

The record behind these values is patent US20250346580A1, “NOVEL PYRIMIDINYL SULFONAMIDE DERIVATIVES” (Hoffmann-La Roche Inc., priority 2023, published 2025).
